# From patent publication US9925166B2, “Methods of treating an overweight or obese subject” (Zafgen, Inc., priority 2008, dated 2018)
# Target: T1, MetAP-2 (Mus musculus, UniProt O08663)
# T1 construct: from tissue; host or cells: adipose tissue of diet-induced obese mice
# Test: ELISA assay of MetAP-2 binding (free MetAP-2) in adipose tissue lysates of dosed diet-induced obese mice
# Protocol: Diet-induced obese mice were orally (p.o.) administered fumagillin (3 mg/kg or 10 mg/kg; Medivet), subcutaneously administered (s.c.) TNP-470 (1 mg/kg, 3 mg/kg, 10 mg/kg, or 30 mg/kg; synthesized by standard semi-synthetic processes as described in European Patent EP 0 357 061), or administered a solution of 10% dimethyl sulfoxide (DMSO; control; Sigma-Aldrich). Mice were sacrificed and adipose tissue samples were obtained.
# An ELISA assay of MetAP-2 binding was conducted with tissue lysates prepared from the adipose tissue samples. The MetAP-2 ELISA is a quantitative assay to determine the amount of free MetAP-2 in tissue or cell lysates, i.e., MetAP-2 not covalently bound to fumagillin or TNP-470. The assay takes advantage of the fact that biotinylated fumagillin can bind to the catalytic site of the MetAP-2 enzyme only if this site has not already been derivatized by fumagillin or TNP-470. The biotinylated MetAP-2-inhibitor complex was captured on a streptavidin-coated plate and detected with a rabbit anti-MetAP-2 antibody (Zymed Laboratories Inc.). Horseradish peroxidase-conjugated anti-rabbit immunoglobulin G (IgG) was added to detect the MetAP-2 antibody immobilized to the streptavidin-coated plate with its covalently bound biotinylated fumagillin. Tetramethylbenzidine (TMB) substrate was added and the reaction was stopped by addition of sulfuric acid. Analysis was performed by determining absorption at 450 nm. Human recombinant MetAP-2 (R&D Systems), pre-bound to biotinylated fumagillin, was used to generate a standard curve.
# T1 sequence (O08663 whole entry): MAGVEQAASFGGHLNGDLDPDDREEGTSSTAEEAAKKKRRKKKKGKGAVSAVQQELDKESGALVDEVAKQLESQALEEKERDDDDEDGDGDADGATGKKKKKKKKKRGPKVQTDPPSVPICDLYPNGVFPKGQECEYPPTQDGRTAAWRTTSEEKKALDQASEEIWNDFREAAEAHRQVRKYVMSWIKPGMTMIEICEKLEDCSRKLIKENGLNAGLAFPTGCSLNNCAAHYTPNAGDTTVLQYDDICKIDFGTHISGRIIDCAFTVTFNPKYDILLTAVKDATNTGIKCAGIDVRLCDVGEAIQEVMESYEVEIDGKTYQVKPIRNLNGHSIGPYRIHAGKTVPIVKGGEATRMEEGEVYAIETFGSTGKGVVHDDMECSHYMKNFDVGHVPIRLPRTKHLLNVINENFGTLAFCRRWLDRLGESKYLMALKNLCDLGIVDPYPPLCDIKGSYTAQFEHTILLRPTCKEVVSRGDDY
compound,measurement,setting,value
CO[C@@H]1[C@H](OC(=O)NC(=O)CCl)CC[C@]2(CO2)[C@H]1[C@@]1(C)O[C@@H]1CC=C(C)C [TNP-470],binding to MetAP-2 in adipose tissue,"TNP-470 subcutaneously 1, 3, 10 or 30 mg/kg, diet-induced obese mice, FIG. 1",binds MetAP-2 in a dose dependent manner
same,binding to MetAP-2 in adipose tissue compared to orally administered fumagillin at the same dosages,"s.c. TNP-470 vs p.o. fumagillin, 3 mg/kg and 10 mg/kg",greater binding
